The text below walks through data of patent publication US20220056019A1, “FARNESOID X RECEPTOR AGONISTS AND USES THEREOF” (Metacrine, Inc., priority 2018, published 2022).

The structures appear in SMILES notation.

The target in this experiment is T1, hFXR (Homo sapiens, UniProt Q96RI1).
T1 construct: expressed in transfected cells; host or cells: CV-1 cells
T1 sequence (Q96RI1 1-486): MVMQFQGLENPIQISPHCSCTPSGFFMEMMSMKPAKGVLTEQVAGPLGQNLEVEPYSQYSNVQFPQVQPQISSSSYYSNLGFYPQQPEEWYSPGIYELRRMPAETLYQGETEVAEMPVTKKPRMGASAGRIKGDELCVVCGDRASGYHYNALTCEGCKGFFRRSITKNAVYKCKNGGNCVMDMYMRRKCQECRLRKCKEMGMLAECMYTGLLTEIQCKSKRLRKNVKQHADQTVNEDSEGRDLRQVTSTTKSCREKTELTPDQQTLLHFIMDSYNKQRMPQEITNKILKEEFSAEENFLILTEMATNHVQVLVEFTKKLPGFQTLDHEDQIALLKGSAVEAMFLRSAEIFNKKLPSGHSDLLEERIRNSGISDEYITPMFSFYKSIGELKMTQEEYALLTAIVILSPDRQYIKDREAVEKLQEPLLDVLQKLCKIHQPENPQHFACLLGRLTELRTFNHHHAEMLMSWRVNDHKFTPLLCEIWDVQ
T1 sequence (P19793 1-462 partner): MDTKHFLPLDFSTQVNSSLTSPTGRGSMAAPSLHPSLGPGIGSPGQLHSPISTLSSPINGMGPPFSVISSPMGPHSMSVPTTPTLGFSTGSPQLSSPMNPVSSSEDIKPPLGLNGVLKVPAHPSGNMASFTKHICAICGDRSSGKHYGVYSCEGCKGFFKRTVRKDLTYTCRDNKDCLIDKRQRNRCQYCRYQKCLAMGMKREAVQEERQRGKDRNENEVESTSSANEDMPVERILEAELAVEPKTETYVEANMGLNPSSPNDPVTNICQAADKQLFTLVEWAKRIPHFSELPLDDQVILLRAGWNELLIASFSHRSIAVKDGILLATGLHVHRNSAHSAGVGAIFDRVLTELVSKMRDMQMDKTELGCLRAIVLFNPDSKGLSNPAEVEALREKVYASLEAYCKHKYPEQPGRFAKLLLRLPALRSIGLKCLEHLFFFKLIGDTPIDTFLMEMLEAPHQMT
The experiment is described as follows: In Vitro FXR Assay (TK): TK-ECRE-luc reporter in transfected CV-1 cells. The note with it: 18 hrs incubation, luminescence. It counts as cell-based. An outline of the steps:
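CV-1, DMEM/10% charcoal-stripped FBS, 37 °C 5% CO2. Transfection O/N: hFXR + hRXR + TK-ECRE-luc + pCMX-YFP. Cpds (DMSO serial dil.) 18 h; lyse, read luminescence.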
As to `COc1ccc([C@H]2CC[C@H](CN(c3cc(-c4cnn(C(C)C)c4)ccn3)C(=O)[C@H]3CC[C@H](OC(=O)NC[C@@H](F)CO)CC3)CC2)cc1C` [Compound 2.41, trans-4-((4-(1-Isopropyl-1H-pyrazol-4-yl)pyridin-2-yl) (((trans)-4-(4-methoxy-3-methylphenyl)cyclohexyl)methyl)carbamoyl) cyclohexyl((R)-2-fluoro-3-hydroxypropyl)carbamate], the EC50 (commonly the concentration needed to bring the measured effect to its halfway point) was not above 50 nM.

For `COc1ccc(C23CCC(CN(c4cc(-c5cnc(C6CC6)s5)ccn4)C(=O)[C@H]4CC[C@H](NC(C)=O)CC4)(CC2)CC3)cc1C` [Compound 9.06, (trans)-4-Acetamido-N-(4-(2-cyclopropylthiazol-5-yl)pyridin-2-yl)-N-((4-(4-methoxy-3-methylphenyl)bicyclo[2.2.2]octan-1-yl)methyl)cyclohexanecarboxamide], the EC50 was not above 50 nM.

With `COc1ccc(C23CCC(CN(c4cc(-c5cnn(C(C)C)c5)ccn4)C(=O)[C@H]4CC[C@H](NC(=O)OC5COC5)CC4)(CC2)CC3)cc1C` [Compound 7.02, (trans)-Oxetan-3-yl (4-((4-(1-isopropyl-1H-pyrazol-4-yl)pyridin-2-yl)((4-(4-methoxy-3-methylphenyl)bicyclo[2.2.2]octan-1-yl)methyl)carbamoyl)cyclohexyl) carbamate], the EC50 was not above 50 nM.

For `COc1ccc([C@H]2CC[C@H](CN(c3cccc(-n4cnc(C5CC5)n4)c3)C(=O)[C@H]3CC[C@H](OC(=O)N4CC(O)C4)CC3)CC2)cc1C` [Compound 5, trans-4-((3-(3-Cyclopropyl-1H-1,2,4-triazol-1-yl)phenyl)((trans-4-(4-methoxy-3-methylphenyl)cyclohexyl)methyl)carbamoyl)cyclohexyl 3-hydroxyazetidine-1-carboxylate], the EC50 is not above 50 nM.

`COc1ccc([C@H]2CC[C@H](CN(c3cc(-c4cc(C(C)C)on4)ccn3)C(=O)[C@H]3CC[C@H](OC(=O)N4CC(O)C4)CC3)CC2)cc1C` [Compound 2.56, trans-4-((4-(5-Isopropylisoxazol-3-yl)pyridin-2-yl)(((trans)-4-(4-methoxy-3-methylphenyl)cyclohexyl)methyl)carbamoyl)cyclohexyl 3-hydroxyazetidine-1-carboxylate]: the EC50 is not above 50 nM.

Compound `COc1ccc([C@H]2CC[C@H](CN(c3cccc(-c4cnn(C(C)C)c4)c3)C(=O)[C@H]3CC[C@H](OC(=O)NCC(C)F)CC3)CC2)cc1C` (stereo partly drawn) [Compound 5.05, trans-4-((3-(1-Isopropyl-1H-pyrazol-4-yl)phenyl)(((trans)-4-(4-methoxy-3-methylphenyl)cyclohexyl)methyl)carbamoyl)cyclohexyl (2-fluoropropyl)carbamate] had an EC50 not above 50 nM.

Compound `COc1ncc([C@H]2CC[C@H](CN(c3cc(-c4coc(C5CC5)n4)ccn3)C(=O)[C@H]3CC[C@H](OC(=O)N4CCN(C)CC4)CC3)CC2)cc1C` [Compound 1.03, trans-4-((4-(2-Cyclopropyloxazol-4-yl)pyridin-2-yl)(((trans)-4-(6-methoxy-5-methylpyridin-3-yl)cyclohexyl)methyl)carbamoyl)cyclohexyl 4-methylpiperazine-1-carboxylate] yielded an EC50 not above 50 nM.

Turning to `COc1ccc(C23CCC(CN(c4cc(-c5cnn(C(C)C)c5)c(F)cn4)C(=O)[C@H]4CC[C@H](OC(=O)N5CC(C#N)C5)CC4)(CC2)CC3)cc1C` [Compound 25.12, 4-((5-Fluoro-4-(1-isopropyl-1H-pyrazol-4-yl)pyridin-2-yl)((4-(4-methoxy-3-methylphenyl)bicyclo[2.2.2]octan-1-yl)methyl)carbamoyl)cyclohexyl trans-3-cyanoazetidine-1-carboxylate], the EC50 was not above 50 nM.

As for `COc1ccc(C23CCC(CN(c4cc(-c5cnn(C6CCCC6)c5)ccn4)C(=O)[C@H]4CC[C@H](OC(=O)N5CC(O)C5)CC4)(CC2)CC3)cc1C` [Compound 23.07, 4-((4-(1-Cyclopentyl-1H-pyrazol-4-yl)pyridin-2-yl)((4-(4-methoxy-3-methylphenyl)bicyclo[2.2.2]oc-tan-1-yl)methyl)carbamoyl)(trans-cyclohexyl) 3-hydroxy-azetidine-1-carboxylate], the EC50 was not above 50 nM.

`COc1ccc([C@H]2CC[C@H](CN(c3cccc(-c4cnn(C(C)C)c4)c3)C(=O)[C@H]3CC[C@H](OC(=O)NCCCF)CC3)CC2)cc1C` [Compound 5.04, trans-4-((3-(1-Isopropyl-1H-pyrazol-4-yl)phenyl)(((trans)-4-(4-methoxy-3-methylphenyl)cyclohexyl)methyl)carbamoyl)cyclohexyl (3-fluoropropyl)carbamate] returned an EC50 not above 50 nM.

The compound `COc1ccc(C23CCC(CN(c4cc(-c5cnn(C(C)C)c5)c(F)cn4)C(=O)[C@H]4CC[C@H](OC(=O)N5CC(CO)C5)CC4)(CC2)CC3)cc1C` [Compound 25.06, 4-((5-Fluoro-4-(1-isopropyl-1H-pyrazol-4-yl)pyridin-2-yl)((4-(4-methoxy-3-methylphenyl)bicyclo[2.2.2]octan-1-yl)methyl)carbamoyl)cyclohexyl trans-3-(hydroxymethyl)azetidine-1-carboxylate] gave an EC50 not above 50 nM.

For `O=C(O[C@H]1CC[C@H](C(=O)N(C[C@H]2CC[C@H](c3cc4ccccn4c3)CC2)c2cccc(-c3cnc(C4CC4)s3)c2)CC1)N1CC(O)C1` [Compound 5.14, trans-4-((3-(2-Cyclopropylthiazol-5-yl)phenyl)((trans-4-(indolizin-2-yl)cyclohexyl)methyl)carbamoyl) cyclohexyl 3-hydroxyazetidine-1-carboxylate], the EC50 is not above 50 nM.

Consider `COc1ccc(C23CCC(CN(c4cc(-c5coc(C(C)C)n5)ccn4)C(=O)[C@H]4CC[C@H](OC(=O)NCCCO)CC4)(CC2)CC3)cc1C` [Compound 23.02, 4-((4-(2-Isopropyloxazol-4-yl)pyridin-2-yl)((4-(4-methoxy-3-methylphenyl)bicyclo[2.2.2]octan-1-yl)methyl)carbamoyl)(trans-cyclohexyl)(3-hydroxypropyl)carbamate], for which the EC50 was not above 50 nM.

As for `COc1ccc(C23CCC(CN(c4cccc(-c5cnn(C(C)C)c5)c4F)C(=O)[C@H]4CC[C@H](OC(=O)N5CC(O)C5)CC4)(CC2)CC3)cc1C` [Compound 25.04, 4-((2-Fluoro-3-(1-isopropyl-1H-pyrazol-4-yl)phenyl)((4-(4-methoxy-3-methylphenyl)bicyclo[2.2.2]octan-1-yl)methyl)carbamoyl)cyclohexyl trans-3-hydroxyazetidine-1-carboxylate], the EC50 was not above 50 nM.

`COc1ccc([C@H]2CC[C@H](CN(c3cccc(-c4cnn(C(C)C)c4)c3)C(=O)[C@H]3CC[C@H](NC(=O)C4CC(O)C4)CC3)CC2)cc1C` (stereo partly drawn) [Compound 14.02, (1r,4r)-4-(3-Hydroxycyclobutanecarboxamido)-N-(3-(1-isopropyl-1H-pyrazol-4-yl)phenyl)-N-((trans-4-(4-methoxy-3-methylphenyl)cyclohexyl)methyl) cyclohexanecarboxamide] gave an EC50 of 50 to 1000 nM.

Compound `COc1ccc(C23CCC(CN(c4cc(-c5cnn(C(C)C)c5)c(F)cn4)C(=O)[C@H]4CC[C@H](OC(=O)N5CC(CS(C)(=O)=O)C5)CC4)(CC2)CC3)cc1C` [Compound 25.07, 4-((5-Fluoro-4-(1-isopropyl-1H-pyrazol-4-yl)pyridin-2-yl)((4-(4-methoxy-3-methylphenyl)bicyclo[2.2.2]octan-1-yl)methyl)carbamoyl)cyclohexyl trans-3-((methylsulfonyl)methyl)azetidine-1-carboxylate] returned an EC50 not above 50 nM.

`COc1ccc(C23CCC(CN(c4cc(-n5nnc(C(C)C)n5)ccn4)C(=O)[C@H]4CC[C@H](OC(=O)N5CC(O)C5)CC4)(CC2)CC3)cc1C` [Compound 26.17, 4-((4-(5-Isopropyl-2H-tetrazol-2-yl)pyridin-2-yl)((4-(4-methoxy-3-methylphenyl)bicyclo[2.2.2]octan-1-yl)methyl)carbamoyl)cyclohexyl trans-3-hydroxyazetidine-1-carboxylate] displayed an EC50 of 1000 to 10000 nM.

`COc1ccc([C@H]2CC[C@H](CN(c3cccc(-c4cnn(C(C)C)c4)c3)C(=O)[C@H]3CC[C@H](OC(=O)N4CCN(C)CC4)CC3)CC2)cc1C` [Compound 5.11, trans-4-((3-(1-Isopropyl-1H-pyrazol-4-yl)phenyl)((trans-4-(4-methoxy-3-methylphenyl)cyclohexyl)methyl)carbamoyl)cyclohexyl 4-methylpiperazine-1-carboxylate] gave an EC50 not above 50 nM.
